This note sets out measurements from patent US9127301B2, “Method of detecting the presence of polycyclic aromatic hydrocarbons” (BIOO SCIENTIFIC CORPORATION, priority 2012, dated 2015).

The target of assay [1] is T1, NDO/NahB/NahC (Pseudomonas putida, UniProt P0A110).
T1 construct: made in house; host or cells: E. coli JM109 (DE3) (pDTG141) for NDO; E. coli BL21 Star (DE3) for NahB and NahC
In words: Coupled naphthalene dioxygenase/NahB/NahC colorimetric assay. It counts as biochemical. The text has this:
This disclosure relates to a method that uses microbial enzymes which degrade polyaromatic hydrocarbons to detect polycyclic aromatic hydrocarbons (PAH) in food and environmental samples. The first step in PAH degradation uses a PAH dioxygenase (PAHDO) enzyme such as naphthalene 1,2-dioxygenase (NDO) or biphenyl dioxygenase (BDO) to convert the PAH compound to PAH-(cis)-diol in an NADH- or NADPH-dependent manner.
The first reaction is catalyzed by the 1,2-dihydroxy-1,2-dihydronaphthalene dehydrogenase enzyme (NahB), while the second reaction is catalyzed by the enzyme 1,2-dihydroxynaphthalene dioxygenase (NahC). These enzymes are both derived from the bacteria Pseudomonas putida.
When these enzymes are used in succession, they function sequentially to convert colorless PAH compounds into a readily-detectable visible product class known as PAH chromene compounds.
(§1) 2 tubes each of NahB, Nahc, and NDO enzymes (1.7 ml aliquotes) were thawed from −20 C along with 2.6 mM NADH in water. 2.5 ml each of the NahC and NahB enzymes were desalted using PD-10 gel filtration and buffer exchanged into 20 mM Tris-Cl pH 8.5 at the same time. Once all of the reagents were thawed and desalted, positive and negative naphthalene reaction were made containing 127 ul each of NahB, NahC, and NDO with 20 ppm naphthalene in dimethylformamide (negative reactions contained only equal amounts dimethylformamide) and 0.133 mM NADH final concentration with a final reaction volume of 405 ul. The reaction was run at 25° C. for 2 hours and the sample absorbance was measured using a BioTek Synergy2 plate reader in the 320-640 nm wavelength range. […] Reactions for all PAH's conducted in the same, or a very similar format, depending on the volume of sample in the reaction. FIG. 4 depicts a spectrophotometric graph showing the absorbance caused by the presence of naphthalene placed in the above NDO/NahB/NahC assay.

Assay [2] concerns the target T1, NDO/NahB/NahC. As to the kind of experiment: Colorimetric detection of fluorene in spiked clam samples, NDO/NahB/NahC assay. It counts as biochemical. To be noted: clam homogenate spiked to 80 ppm fluorene, dichloromethane extraction, 10 μl of 200 ppm DMF solution in 411 μl reaction, 2 hr, 25° C. Here is the method: as §1
Approximately 25 g of clams were homogenized using a blender; a 2 g sample of this 25 g preparation was spiked to 80 ppm fluorene. […] The reaction was run for 2 hr at 25° C. and then read on a BioTek Synergy2 plate reader from 320-640 nm. FIG. 5 depicts the absorbance of fluorene spiked clam samples in the NDO/NahB/NahC assay.

T1 sequence (P0A110 whole entry): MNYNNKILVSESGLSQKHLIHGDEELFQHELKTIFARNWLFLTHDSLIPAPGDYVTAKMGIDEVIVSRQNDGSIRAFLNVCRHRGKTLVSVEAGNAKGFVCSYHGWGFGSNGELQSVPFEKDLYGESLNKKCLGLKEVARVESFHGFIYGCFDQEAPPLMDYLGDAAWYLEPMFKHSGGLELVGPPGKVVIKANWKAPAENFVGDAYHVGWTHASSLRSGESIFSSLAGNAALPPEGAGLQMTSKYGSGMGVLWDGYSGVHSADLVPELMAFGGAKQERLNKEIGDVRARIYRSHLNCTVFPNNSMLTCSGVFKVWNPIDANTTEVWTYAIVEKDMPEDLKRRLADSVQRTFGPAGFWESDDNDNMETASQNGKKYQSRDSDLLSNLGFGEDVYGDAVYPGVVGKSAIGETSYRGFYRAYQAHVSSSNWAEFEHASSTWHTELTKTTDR
T1 sequence (P0A112 whole entry, further chain): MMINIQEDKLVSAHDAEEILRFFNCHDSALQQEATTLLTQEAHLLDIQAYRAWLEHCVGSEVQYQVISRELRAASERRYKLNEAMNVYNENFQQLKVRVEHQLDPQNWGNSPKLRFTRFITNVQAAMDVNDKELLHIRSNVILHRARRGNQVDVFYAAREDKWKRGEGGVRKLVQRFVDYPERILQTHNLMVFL

On to `c1ccc2cc3ccccc3cc2c1` [anthracene], for which the “detection of PAH compound by the colorimetric assay” value (“detection of PAH compound” below) in assay [1] is “detect”.

In the case of `c1ccc2c(c1)cc1ccc3cccc4ccc2c1c34` [benz(a)pyrene], in assay [1], the “detection of PAH compound” value was “detect”.

Consider `c1ccc(-c2ccccc2)cc1` [biphenyl], for which, in assay [1], the “detection of PAH compound” value is reported as “detect”. Still for that read-out and setting: to `c1ccc2c(c1)[nH]c1ccccc12` [carbazole] belongs “detect”. `c1ccc2c(c1)Cc1ccccc1-2` [fluorene]: the “detection of PAH compound” value in assay [1] is recorded as “detect”. In addition, the “absorbance at 390 nm versus buffer control or post-extraction spike” value in assay [2] is “slightly higher”. In the case of `c1ccc2ccccc2c1` [naphthalene], the “detection of PAH compound” value in assay [1] is “detect”. For the same compound, the “absorbance at 370 nm versus negative control reaction” value in assay [1] (20 ppm naphthalene in dimethylformamide, 0.133 mM NADH, 25° C., 2 hours) is recorded as “significantly higher”. `c1ccc2c(c1)ccc1ccccc12` [phenanthrene]: the “detection of PAH compound” value in assay [1] is on record as “detect”.
